Results from publication PMC6615261, “Repurposing Azithromycin and Rifampicin Against Gram-Negative Pathogens by Combination With Peptidomimetics” (Frontiers in Cellular and Infection Microbiology, 2019).

How the values were obtained:
[1] = test system: MDR E. coli ST131; experiment: Screening of peptidomimetic-antibiotic combinations (growth / growth inhibition); assay type: cell-based, Escherichia coli; design: key to Growth in combination with RIF / Growth in combination with AZM: Growth (+); growth inhibition (–); settings: for Growth in combination with AZM: peptidomimetic 0.5 μM + azithromycin 1 μg/mL; for Growth in combination with RIF: peptidomimetic 0.5 μM + rifampicin 0.5 μg/mL; for Potentiation in the screening, rifampicin or azithromycin: 0.5 μM peptidomimetic
Description: (§1) Minimal inhibitory concentrations (MICs) of peptidomimetics, antibiotics and their combinations were determined by broth microdilution according to the Clinical Laboratory Standards Institute performance standards (Clinical and Laboratory Standards Institute, [2013]). […] Since rifampicin and azithromycin mainly are used to treat infections with Gram-positive pathogens only CLSI clinical breakpoints were available for such bacteria. […] Potentiation of additional antibiotics by peptidomimetics was determined by using commercial 96-well plates containing varied concentrations of standard antibiotics (COMPAN1F; Trek Diagnostic Systems Inc.). The peptidomimetics were added immediately prior to inoculation with pathogen, and then MICs were determined as above. The MICs of peptidomimetic/antibiotic combinations were determined according to the method above, and the concentration ratios were selected based upon checkerboard results with 2:1 and 1:4 ratio of peptidomimetic with rifampicin or azithromycin, respectively. Minimal bactericidal concentrations (MBCs) were determined by using growth-curve assay plates. MIC plates were prepared as above, and then the plates were incubated at 37°C with continuous shaking. Growth was recorded at 10 min intervals as optical density (OD) at 600 nm during 24 h. At 24 h, for wells without growth, a sample was diluted 10-fold in sterile saline (0.9% sodium chloride) and plated onto MHA, following CLSI guidelines (Clinical and Laboratory Standards Institute, [1999]).

[2] = test system: K. pneumoniae ST258; experiment: as above; assay type: cell-based, Klebsiella pneumoniae; design: key to Growth in combination with RIF / Growth in combination with AZM: Growth (+); growth inhibition (–); settings: for Growth in combination with AZM: peptidomimetic 0.5 μM + azithromycin 1 μg/mL; for Growth in combination with RIF: peptidomimetic 0.5 μM + rifampicin 0.5 μg/mL; for Potentiation in the screening, rifampicin or azithromycin: 0.5 μM peptidomimetic
Description: as §1

Substance	Growth in combination with AZM [1]	Growth in combination with RIF [1]	Growth in combination with AZM [2]	Growth in combination with RIF [2]	Potentiation in the screening, rifampicin or azithromycin [1]	Potentiation in the screening, rifampicin or azithromycin [2]	Screening result with rifampicin ([1]; 0.5 μM peptidomimetic + 0.5 μg/mL rifampicin)
Ac-(hArg-βNchx-Lys-βNspe)3-NH2 [Peptidomimetic 8]	+	+	+	+			
VNW(NLys)2VL(NLys)2II(NLys)VA(NLys)-NH2 [Peptidomimetic 30]	+	+	+	+			
Ac-(hArg-βNPhe)8-NH2 [Peptidomimetic 2]	+	+	+	+			
(NLys)LG(NLys)IW(NLys)I(Nlys)2LF-NH2 [Peptidomimetic 32]	+	+	+	+			
R(Tbt)R(NPhe) [Peptidomimetic 39]	+	+	+	+			
Oct-[(S)-Aoc]-(Lys-βNphe)6-NH2 [Peptidomimetic 42]	+	+	+	+			
Ac-(bNLys-Trp)8-NH2 [Peptidomimetic 21]	+	–	+	+			
Ac-(Lys-NTrp)8-NH2 [Peptidomimetic 19]	–	+	+	+			
Ac-(NLys-NPhe)8-NH2 [Peptidomimetic 22]	–	–	+	+			
Oct-(Lys-βNspe)6-NH2 [Peptidomimetic 35]	+	+	+	+			
Cin-(Lys-Phe)8-NH2 [Peptidomimetic 24]	+	+	+	+			
Lau-(Lys-βNPhe)6-NH2 [Peptidomimetic 37]	+	–	+	+			
Ac-(NLys-Trp)8-NH2 [Peptidomimetic 20]	+	–	+	+			
Lau-Dap(Lau)-(Lys-βNspe-hArg-βNspe)3-NH2 [Peptidomimetic 40]	+	+	+	+			
F5Ph-acetic acid-(5F-Phe)-(Lys-βNspe-hArg-βNspe)3-NH2 [Peptidomimetic 29]	+	+	+	+	did not exhibit any potentiation activity	did not exhibit any potentiation activity	
G(NLys)W(NLys)2II(NLys)VA(NLys)-NH2 [Peptidomimetic 31]	+	+	+	+			
Pam-[(S)-Aoc]-(Lys-βNphe)6-NH2 [Peptidomimetic 11]	+	+	+	+			
Ac-(hArg-βNspe)6-(Trp)2-NH2 [Peptidomimetic 16]	+	+	+	+			

Substance	Growth in combination with AZM [1]	Growth in combination with RIF [1]	Growth in combination with AZM [2]	Growth in combination with RIF [2]	Potentiation in the screening, rifampicin or azithromycin [1]	Potentiation in the screening, rifampicin or azithromycin [2]	Screening result with rifampicin ([1]; 0.5 μM peptidomimetic + 0.5 μg/mL rifampicin)
Ac-(hArg-βNPhe)5-NH2 [Peptidomimetic 3]	+	–	+	+			
Ac-(Lys-βNspe)6-NH2 [Peptidomimetic 6]	–	–	+	+			
Pam-(Lys-βNspe-hArg-βNspe)2-NH2 [Peptidomimetic 13]	+	+	+	+	did not exhibit any potentiation activity	did not exhibit any potentiation activity	
R(Tbt)R(hPhe)-NH2 [Peptidomimetic 38]	+	+	+	+			
Pam-(Lys-βNPhe)6-NH2 [Peptidomimetic 36]	+	+	+	+			
Pam-(Lys-βNspe-hArg-βNspe)-NH2 [Peptidomimetic 9]	+	+	+	+	did not exhibit any potentiation activity	did not exhibit any potentiation activity	
(NLys)W(NLys)LF(NLys)2VL(NLys)VLTTG-NH2 [Peptidomimetic 33]	+	+	+	+			
Ac-(Lys-βNspe-hArg-βNspe)2-NH2 [Peptidomimetic 10]	+	–	+	+			potentiated rifampicin activity
Ac-(azaLys-βNspe-Lys-βNspe)4-NH2 [Peptidomimetic 17]	+	+	+	+			
Ac-(bNLys-bNPhe)8-NH2 [Peptidomimetic 18]	+	+	+	+			
p-CF3-benzoyl-(Lys-Phe)8-NH2 [Peptidomimetic 23]	+	+	+	+			
Ac-[(S)-Aoc]-(Lys-βNPhe)6-NH2 [Peptidomimetic 41]	–	–	+	+			
Pam-(Lys-βNspe)6-NH2 [Peptidomimetic 34]	+	+	+	+			
Ac-(hArg-βNchx)6-NH2 [Peptidomimetic 7]	+	+	+	+			
Ac-(hArg-βNspe)7-NH2 [Peptidomimetic 4]	+	+	+	+			
Ac-(Lys-βNspe)8-NH2 [Peptidomimetic 5]	–	–	+	+			
Cin-(Lys-βNspe-hArg-βNspe)3-NH2 [Peptidomimetic 27]	+	+	+	+	did not exhibit any potentiation activity	did not exhibit any potentiation activity	
Pam-(Lys-βNspe-hArg-βNspe)3-NH2 [Peptidomimetic 12]	+	+	+	+	did not exhibit any potentiation activity	did not exhibit any potentiation activity	
